Data taken from US20030162759A1, “Aldosterone blocker therapy to prevent or treat inflammation-related disorders” (priority 2000, published 2003).
Where “and” joins values, the source holds several entries; their conditions need not be identical. Equal entries are not always repeated. Entries after “also recorded” stand apart in the source; their conditions may differ.

Key:
[1] = system: Transforming growth factor beta 1; assay: Assay C: TGF beta 1 mRNA in left ventricle (TaqMan); assay type: in vivo, rat; settings: for TGF-β, Mean: group mean; for TGF-β: individual rats
Experimental: (§1) The procedure of Assay B was expanded upon in a further study. […] Myocardial tissue from animals in each treatment group was examined after 7, 14, or 30 days of treatment.
(§2) Potassium chloride supplementation was added to the saline solution in order to prevent the potential hypokalemia associated with aldosterone excess.
(§3) At the time of the surgery, an Alzet 2002 osmotic minipump (Alza Corp., Palo Alto, Calif.) containing either vehicle (9% ethanol/87% propylene glycol/4% dH2O) or 1.0 mg/mL d-aldosterone (Sigma Chemical, St. Louis, Mo.) was inserted subcutaneously at the nape of the neck. Aldosterone was administered at a dose of 0.75 g/hour. […] Animals were sacrificed from each group (n=8-13) after 7, 14, or 30 days of treatment.
Following exsanguination, hearts and kidneys were isolated, removed, rinsed in cold phosphate-buffered saline, and blotted dry. Kidneys were immediately bifurcated through the long axis with a razor blade and placed in 10% neutral buffered formalin (NBF, Richard-Allen Scientific, Kalamazoo, Mich.). For the hearts, the right ventricle (RV) was cut away from the left ventricle (LV), both ventricles were weighed using a Mettler AE163 balance (Mettler-Toledo, Inc., Hightstown, N.J.), and the RV was placed in 10% NBF. A 2 mm coronal slab of the LV apex was removed and frozen with dry ice/isopentane for analysis of gene expression and the remaining portion of the LV was placed in 10% NBF for fixation. Final wet trimming was completed after 3-4 days fixation where a second 2 mm coronal slab was removed for hydroxyproline analysis and a third 2 mm slab was removed from the equatorial region for histology.
(§4) The fluorogenic 5′-nuclease assay (TaqMan PCR) using Applied Biosystems' 7700 Sequence Detection System (Applied Biosystems, Foster City, Calif.) allowed for real time detection/quantitation of a specific gene by monitoring the increase in fluorescence of a gene-specific, dye-labeled oligonucleotide probe. Probes for target and reference genes were labeled at the 5′-end with a 6-carboxyfluorescein (6FAM) reporter dye and at the 3′-end with a 6-carboxy-N,N,N′,N′-tetramethylrhodamine (TAMRA) quencher dye. When the probe was annealed to the target gene, fluorescence of 6FAM was prevented by the close proximity of TAMRA. The exonuclease activity of Taq polymerase released the dyes from the oligonucleotide probe by displacing the probe from the target sequence resulting in fluorescence excitation in direct proportion to the amount of target message present. Data analysis was performed using the Sequence Detection System software from Applied Biosystems.
Primers and probes were designed using Oligo Primer Analysis Software, Version 5.0 (National Biosciences Inc. (NBI)-Wojciech Rychlik, Cascade, Colo.). Primers were synthesized by Life Technologies (Grand Island, N.Y.) and probes were synthesized by Applied Biosystems. Primer/probe sets were designed from known sequences of rat genes to be analyzed. All target gene values were normalized to a reference gene, constitutively expressed cyclophilin. Primer/probe sets sequences can be found in Table 8
RNA was extracted from frozen (−70° C.) left ventricle (LV) tissue (approximately 10-20 mg) using 1.5 mL RNA-STAT 60 according to manufacturer's instructions (Leedo Medical Laboratories, Inc., Houston, Tex.). Briefly, tissues were homogenized using a tissue homogenizer equipped with a 5 mm probe (Ultra-Turrax T8 Homogenizer, IKA Works, Inc. Wilmington, N.C.). Following homogenization, an equal volume of molecular grade chloroform (Sigma Chemical Co., St. Louis, Mo.) was incubated with periodic mixing for 10 min at room temperature. Samples were centrifuged at 12,000 g for 10 min and RNA was precipitated from the top layer by adding an equal volume of molecular grade isopropanol (Sigma Chemical Co.) followed by an overnight incubation at −80° C.

[2] = system: Vascular Cell Adhesion Molecule-1 (VCAM-1); assay: Assay C: VCAM-1 relative mRNA expression in heart (TaqMan); assay type: in vivo, rat; settings: for VCAM, Mean / VCAM: mRNA; for VCAM, Mean: group mean; for VCAM: individual rats
Experimental: as §1, §2, §3, §4
All primers and probes were designed using Primer Express software supplied with the 7700 Sequence Detection System and synthesized by Applied Biosystems. Standard curves using 5-fold dilutions of total RNA (from 200 ng to 320 pg) were performed to determine the efficiency of each primer/probe set in the TaqMan reaction prior to the analysis of the experimental samples. Primer/probe sets were designed from known sequences of rat genes to be analyzed. All target gene values were normalized to a reference gene, constitutively expressed cyclophilin. Primer/probe set sequences can be found in Table 8.
RNA was extracted from frozen (−80° C.) rat heart tissue using the Totally RNA Isolation Kit (Ambion, Inc., Austin, Tex.). Tissue was crushed using a stainless steel mortar and pestle, which had been chilled to −80° C. and transferred to a dounce homogenizer (Kontes, Vineland, N.J.) containing 3-10 mL cold denaturation buffer. Tissue was homogenized and transferred to a sterile, 15 mL polypropylene centrifuge tube. An equal volume of phenol:chloroform:isoamyl alcohol (25:24:1) was added, samples were shaken vigorously for 1 min, and incubated on ice for at least 15 min. Samples were centrifuged for 30 min at 10,000 g. The aqueous phase was removed, 1/10 volume of a sodium acetate solution (3.0 M NaOAc pH 4.5) was added, samples were shaken or inverted for 10 seconds, and acid-phenol (premixed with isoamyl alcohol):chloroform (5:1, Ambion, Inc.) was added at an volume equivalent to the starting sample volume. Samples were shaken vigorously for 1 min, followed by a 15-min incubation on ice, and centrifuged for 30 min at 10,000 g. The aqueous phase removed and placed in a clean polypropylene tube. An equal volume of isopropanol (Sigma, St. Louis, Mo.) was added and the samples were mixed and incubated overnight at −20° C. The samples were centrifuged for 30 min at 10,000 g, the supernatant was removed and the RNA pellet was resuspended in DNAse/RNAse-free water. Samples were frozen at −80° C. for at least 2 hours, thawed on wet ice, and diluted for quantitation.

[3] = 7 days of treatment, listed as Aldosterone + salt
[4] = 14 days of treatment, listed as Aldosterone + salt
[5] = 30 days of treatment, listed as Aldosterone + salt
[6] = 7 days of treatment, listed as Eplerenone + aldosterone + salt
[7] = 14 days of treatment, listed as Eplerenone + aldosterone + salt
[8] = 30 days of treatment, listed as Eplerenone + aldosterone + salt

Structure (SMILES) | TGF-β, Mean ([1]; 30 days of treatment) [AU] | TGF-β [1, 3] | TGF-β [1, 4] | TGF-β [1, 5] | VCAM-1 gene expression increase ([2]; day 30 of aldosterone+salt treatment, did not reach statistical significance) | VCAM, Mean ([2]; 30 days of treatment) [AU] | VCAM [2, 3] | VCAM [2, 4] | VCAM [2, 5] [AU] | TGF-β, Mean ([1]; 7 days of treatment) [AU] | TGF-β, Mean ([1]; 14 days of treatment) [AU] | TGF-β [1, 6] | TGF-β [1, 7] | TGF-β [1, 8] | VCAM, Mean ([2]; 7 days of treatment) [AU] | VCAM, Mean ([2]; 14 days of treatment) [AU] | VCAM [2, 6] | VCAM [2, 7] | VCAM [2, 8] | VCAM-1 mRNA expression in myocardium ([2]; time course 7, 14, 30 days, eplerenone 100 mg/kg/day)
C[C@]12CCC(=O)C=C1CC[C@@H]1[C@@H]2[C@@H](O)C[C@]2(C=O)[C@@H](C(=O)CO)CC[C@@H]12 [aldosterone] | 1.33 | 0.98 AU and 1.47 AU and 1.21 AU | 0.55 AU and 1.27 AU and 0.56 AU | 1.27 AU and 1.20 AU and 0.83 AU and 0.54 AU | increased two-fold | 2.14 | 0.85 AU and 0.61 AU and 0.94 AU and 0.27 AU | 0.89 AU and 0.69 AU and 0.84 AU and 0.72 AU | 0.72 | – | – | – | – | – | – | – | – | – | – | –
COC(=O)[C@@H]1CC2=CC(=O)CC[C@]2(C)[C@@]23O[C@@H]2C[C@@]2(C)[C@@H](CC[C@@]24CCC(=O)O4)[C@H]13 [eplerenone, Pregn-4-ene-7,21-dicarboxylic acid, 9,11-epoxy-17-hydroxy-3-oxo-, γ-lactone, methyl ester, (7α, 11α, 17β) -] | 1.32 | – | – | – | – | 1.04 | – | – | – | 0.99 | 1.26 | 0.80 AU (2×) and 0.81 AU and 0.51 AU and 0.61 AU and 0.84 AU | 0.58 AU and 0.62 AU and 1.04 AU and 0.71 AU and 1.21 AU and 2.41 AU | 1.00 AU and 1.40 AU and 0.96 AU and 1.93 AU and 0.89 AU | 0.56 | 0.83 | 0.67 AU and 0.58 AU and 0.22 AU and 0.57 AU and 0.53 AU and 1.00 AU | 0.54 AU and 0.66 AU and 0.61 AU (2×) and 0.67 AU and 0.86 AU and 1.00 AU and 0.68 AU (2×) and 1.60 AU | 0.79 AU and 0.52 AU and 0.57 AU and 0.61 AU | significantly reduced; also recorded: inhibition of early time-course expression of myocardial ICAM-1 and VCAM-1
